The subject of test [1] is Amaranth pigweed (PW). Briefly: Post-emergence herbicide test. In kind it is in vivo, Amaranthus retroflexus. Particulars: 336 h, two weeks after treatment; for pest or weed control at 8966.8 g/ha: 8 lb/acre. The gist of the method: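 Pot-grown pigweed was sprayed post-emergence at the 1–2 true-leaf stage with compound at rates equivalent to 8 lbs per acre (formulations also prepared for 4 lbs/acre) in 38 gallons per acre, using a hood with fixed nozzle. Plants were sub-irrigated in the greenhouse, and injury or control was rated visually two weeks after treatment.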

For test [2], the system named is Johnson grass (JG). As to the kind of experiment: Pre-emergence herbicide test. In kind it is in vivo, Sorgum helepense. To be noted: Sorghum halepense, 336 h, 8 lb/acre, two weeks after treatment. The gist of the method:
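Pots seeded one day before spraying; compound applied pre-emergence at 8 lbs/acre (or 4 lbs/acre) in 38 gallons/acre spray volume. Sub-irrigated in greenhouse; injury/control rated visually two weeks after treatment.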

The subject of test [3] is Corn (CN). Briefly: Post-emergence herbicide test. In kind it is in vivo. To be noted: Zea mays, 336 h, two weeks after treatment; for pest or weed control at 8966.8 g/ha: 8 lb/acre. The procedure, abridged:
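Greenhouse seedlings grown in potting soil and sprayed post-emergence at 8 lbs compound/acre (formulations also made for 4 lbs/acre) in 38 gallons/acre spray volume. Watering by sub-irrigation only. Injury or control rated visually two weeks after treatment.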

Test [4] concerns Turnip (TP). Briefly: Post-emergence herbicide test. In kind it is in vivo, Brassica sp. Particulars: Brassica rapa, post-emergence, 336 h, two weeks after treatment; for pest or weed control at 8966.8 g/ha: 8 lb/acre. The gist of the method: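 A greenhouse post-emergence herbicide test on turnip. Seeds were sown on the surface of potting soil in 3' plastic pots, lightly covered with screened soil and watered from below. Planting was timed so seedlings had 1 or 2 true leaves above the cotyledons at spraying, done in a hood with a fixed nozzle. Control or injury was scored by eye after two weeks.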

Test [5] has as its system Barnyard grass (BG). As to the kind of experiment: Post-emergence herbicide test. In kind it is in vivo. Particulars: Echinochloa crus-galli, 336 h, two weeks after treatment; for pest or weed control at 8966.8 g/ha: 8 lb/acre. The procedure, abridged:
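Greenhouse pot-grown barnyard grass seedlings sprayed post-emergence at 8 lbs active compound per acre (some at 4 lbs/acre) in 38 gallons per acre, then sub-irrigated. Injury or control rated visually two weeks after treatment.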

The test system of test [6] is variety of crops and weed species. Briefly: Pre- and post-emergence herbicide tests, overall assessment of Tables III-VI. In kind it is in vivo. Particulars: data of Tables III-VI. As for the experimental part: All crop and weed species were planted individually in 3' plastic pots containing potting soil. Four seeds each of corn, cotton, and snapbeans were seeded to a depth equal to the diameter of the seed. All other species were surface seeded and sprinkled with screened soil in an amount sufficient to cover the seed. Immediately after planting, all pots were watered by sub-irrigation in greenhouse trays. Pots for the pre-emergence phase were seeded one day before treatment.
Compounds were tested at rates of application equivalent to 8 lbs. of actual compound per acre in a spray volume of 38 gallons per acre. Spray hood constants required to deliver the above volume are as follows:
Two weeks after treatment, pre- and post-emergence injury or control was visually rated, and the results were as shown in the following tables. Pre-emergence data are provided in TABLE III and post-emergence data are provided in TABLE IV, for compounds having the formula illustrated in TABLE I. Correspondingly, pre-emergence and post-emergence data, respectively, are set forth in TABLES V AND VI, for compounds having the formula illustrated in TABLE II.

Test [7] deals with Crabgrass (CG). As to the kind of experiment: Post-emergence herbicide test. In kind it is in vivo, Digitaria sanquinalis. To be noted: Digitaria sanguinalis, post-emergence, 336 h, two weeks after treatment; for pest or weed control at 8966.8 g/ha: 8 lb/acre. The procedure, abridged:
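Crabgrass (Digitaria sanquinalis) was surface seeded individually in 3' plastic pots of potting soil, covered with screened soil, and watered by sub-irrigation in greenhouse trays. Planting was staggered so seedlings reached the target stage together. Post-emergence sprays were applied in a hood with a removable belt and fixed nozzle, and control was visually rated two weeks after treatment.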

For test [8], the system named is Turnip (TP). As to the kind of experiment: Pre-emergence herbicide test. In kind it is in vivo, Brassica sp. To be noted: Brassica rapa, pre-emergence, 336 h; 8 lb/acre; two weeks after treatment. The procedure, abridged:
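Turnip (Brassica sp.) seeds were surface sown in 3' plastic pots of potting soil, covered with a thin layer of screened soil, and sub-irrigated in greenhouse trays. Pots were seeded one day ahead of treatment, sprayed pre-emergence under a hood with a fixed nozzle and moving belt, then kept in the greenhouse.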

In test [9] the test system is Bean (BN). As to the kind of experiment: Post-emergence herbicide test. In kind it is in vivo, Phaseolus vulgaris var. Black Valentine. Particulars: Phaseolus vulgaris, post-emergence, 336 h, two weeks after treatment; for pest or weed control at 8966.8 g/ha: 8 lb/acre. The procedure, abridged:
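Snapbean (Phaseolus vulgaris var. Black Valentine) was tested post-emergence. Four seeds were sown in 3' plastic pots of potting soil at a depth equal to the seed diameter, then sub-irrigated in greenhouse trays. Planting dates were staggered so plants were sprayed once primary leaves had expanded, with the growing point at the primary leaf nodes.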

The subject of test [10] is Amaranth pigweed (PW). Briefly: Pre-emergence herbicide test. Particulars: 336 h, 8 lb/acre, two weeks after treatment. In kind it is in vivo, Amaranthus retroflexus. The procedure, abridged: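 Pigweed was surface-seeded in potted soil one day before spraying at 8 lbs compound per acre, or 4 lbs/acre, in 38 gallons per acre. Pots were kept in the greenhouse with sub-irrigation only; injury or control was rated visually two weeks after treatment.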

In test [11] the test system is Bean (BN). Briefly: Pre-emergence herbicide test. In kind it is in vivo, Phaseolus vulgaris var. Black Valentine. Particulars: Phaseolus vulgaris, 336 h, 8 lb/acre, two weeks after treatment. The procedure, abridged:
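Black Valentine bean was seeded in potting soil one day before spraying. Compound was applied pre-emergence at 8 lbs/acre (also 4 lbs/acre) in 38 gallons per acre. Plants were sub-irrigated and injury or control was rated visually after two weeks.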

In test [12] the test system is Cotton (CT). As to the kind of experiment: Post-emergence herbicide test. In kind it is in vivo, Gossypium hirsutum var. DPL smooth leaf. Particulars: Gossypium hirsutum, post-emergence, 336 h, two weeks after treatment; for pest or weed control at 8966.8 g/ha: 8 lb/acre. The gist of the method: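 Cotton (Gossypium hirsutum var. DPL smooth leaf) was grown in 3' plastic pots of potting soil, four seeds per pot, planted at a depth equal to the seed diameter and watered by sub-irrigation. At the stage of expanded cotyledons with the first true leaf 1' long, plants were sprayed post-emergence in a hood with a fixed nozzle over a moving belt. Percent control was rated visually two weeks later.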

Test [13] has as its system Cotton (CT). As to the kind of experiment: Pre-emergence herbicide test. In kind it is in vivo, Gossypium hirsutum var. DPL smooth leaf. Particulars: Gossypium hirsutum, 336 h, 8 lb/acre, two weeks after treatment. The procedure, abridged: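 Crop and weed species seeded one day before treatment, then sprayed pre-emergence at 8 lbs actual compound per acre (also 4 lbs/acre formulations) in 38 gallons per acre. Pots kept in greenhouse with sub-irrigation only; injury or control visually rated two weeks after treatment.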

Test [14] concerns Corn (CN). Briefly: Pre-emergence herbicide test. In kind it is in vivo. To be noted: Zea mays, 336 h, 8 lb/acre, two weeks after treatment. The gist of the method:
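Four corn seeds per pot, sown at seed-diameter depth one day before spraying, got soil surface treatment at 8 lbs/acre (4 lbs/acre formulations also prepared) in 38 gallons/acre. Pots were greenhouse-held with sub-irrigation only. Injury or control was scored visually two weeks after treatment.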

Test [15] concerns Johnson grass (JG). As to the kind of experiment: Post-emergence herbicide test. In kind it is in vivo, Sorgum helepense. To be noted: Sorghum halepense, 336 h, two weeks after treatment; for pest or weed control at 8966.8 g/ha: 8 lb/acre. The gist of the method: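 Greenhouse pot-grown seedlings sprayed post-emergence at 8 lbs compound per acre (some at 4 lbs/acre) in 38 gallons per acre spray volume. Sub-irrigated thereafter. Injury/control rated visually two weeks after treatment.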

Test [16] concerns Crabgrass (CG). Briefly: Pre-emergence herbicide test. In kind it is in vivo, Digitaria sanquinalis. To be noted: Digitaria sanguinalis, pre-emergence, 336 h; 8 lb/acre; two weeks after treatment. The procedure, abridged: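 Crabgrass (Digitaria sanquinalis) was surface seeded in 3' plastic pots of potting soil, covered with screened soil, and watered by sub-irrigation in greenhouse trays. Pots were seeded one day before spraying in a hood with a moving belt and fixed nozzle. Plants stayed in the greenhouse on sub-irrigation, and pre-emergence control was rated visually two weeks after treatment.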

The test system of test [17] is Barnyard grass (BG). As to the kind of experiment: Pre-emergence herbicide test. Particulars: Echinochloa crus-galli, 336 h, 8 lb/acre, two weeks after treatment. In kind it is in vivo. The gist of the method:
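Barnyard grass surface-seeded in potting soil and sprayed pre-emergence one day after seeding, at 8 or 4 lb compound/acre in 38 gal/acre spray volume. Pots kept in greenhouse with sub-irrigation only; injury or control rated visually two weeks after treatment.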

Test [18] relates to Yellow foxtail grass (YF). Briefly: Post-emergence herbicide test. In kind it is in vivo, Setaria glauca. Particulars: Setaria, 336 h, two weeks after treatment. The procedure, abridged:
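Potted seedlings grown in greenhouse, planting staggered to reach the target stage together, then sprayed post-emergence at 8 lbs actual compound/acre in 38 gallons/acre (4 lbs/acre formulations also prepared). Sub-irrigated afterwards. Injury or control rated visually two weeks after treatment.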

In the case of `CCc1nnc(NC(=O)N(C)C)s1` [Example 20], the pest or weed control at 8966.8 g/ha in test [1] was determined as 100%; in test [2], 70%; in test [3], 30%; in test [4] it was 90%; in test [5], 20%; in [7], 20%. In addition, the pest or weed control at 8966.8 g/ha in test [8] came to 100%; in [9], 50%; in test [10], 90%; in test [11], 10%; in test [12], 80%; in test [13], 30%. Besides, the results for the pest or weed control at 8966.8 g/ha in [14], in test [15] and in test [16] were 30%, 20% and 90%, respectively. Also, the “herbicidal effectiveness / selectivity, in words” value in [6] was “more selective when applied to a certain crop or weed species”.

On to `CNC(=O)Nc1nnc(CC(C)C)s1` [Example 21], for which the pest or weed control at 8966.8 g/ha in test [1] was determined as 20%; in test [2], 10%; in test [3], 20%; in test [4] it was 20%; in test [5] it was 20%; in test [7], 30%. In addition, the pest or weed control at 8966.8 g/ha in test [8] came out at 20%; in test [9], 60%; in [10], 60%; in test [11], 100%; in test [12], 50%; in [13], 10%. Further, the pest or weed control at 8966.8 g/ha in [14] came out at 10%; in test [17], 10%; in [15] it was 30%; in test [16] it was 20%. In addition, in test [6], the “herbicidal effectiveness / selectivity, in words” value is given as “more selective when applied to a certain crop or weed species”.

On to `CNC(=O)Nc1nnc(SC)s1` [Example 26], for which the pest or weed control at 2241.7 g/ha amounted to 90% in test [1] (2 lb/acre); 60% in test [4] (2 lb/acre); 10% in [5] (2 lb/acre); 100% in test [9] (2 lb/acre); 100% in [12] (2 lb/acre). The pest or weed control at 4483.4 g/ha in test [1] (4 lb/acre), in test [3] (4 lb/acre), in test [4] (4 lb/acre), in test [5] (4 lb/acre), in test [18] (4 lb/acre) and in [7] (4 lb/acre) was 100% each time. Also, the pest or weed control at 4483.4 g/ha amounted to 100% in [9] (4 lb/acre), 90% in test [12] (4 lb/acre) and 80% in test [15] (4 lb/acre). The pest or weed control at 8966.8 g/ha in [1] worked out at 100%; in test [3], 40%; in test [4] it was 100%; in test [5], 60%; in [18] (8 lb/acre), 90%; in test [7], 100%. Besides, the pest or weed control at 8966.8 g/ha in test [8] amounted to 30%; in [9], 100%; in test [11], 30%; in test [12] it was 90%; in test [13], 100%; in test [14], 50%. The pest or weed control at 8966.8 g/ha in [17] worked out at 50%; in test [15], 100%; in [16], 100%. Moreover, the pest or weed control in [3] (2 lb/acre) stood at 20%; in test [18] (2 lb/acre) it was 60%; in [7] (2 lb/acre), 50%; in test [15] (2 lb/acre) it was 30%. Besides, the “herbicidal effectiveness / selectivity, in words” value in [6] is “extremely effective when applied to a variety of crops and weed species”.

These data come from patent publication US4175081A, “5-Substituted thiadiazole ureas” (priority 1977, dated 1979).
